# Source: US11401555B2, “Genetic polymorphisms associated with stroke, methods of detection and uses thereof” (CELERA CORPORATION, priority 2008, dated 2022)
# Test: Stroke statin response (SSR) in the PROSPER pravastatin trial: pravastatin-treated versus placebo-treated, by SNP genotype
# Assay type: in vivo, human
# Conditions: for HR_RESP_unadj (hazard ratio, pravastatin-treated versus placebo-treated): endpoint stroke; for EVENTS_RESP (number of stroke events): pravastatin arm
# Description: (hCV26505812) for association with SSR in CARE (Table 37) and PROSPER (Table 38), including both unadjusted and adjusted analyses (adjusted for factors such as age, gender, smoking status, hypertension, diabetes, BMI, and LDL and HDL levels). Table 37 provides results in CARE, and Table 38 provides results in PROSPER (whether each analysis is unadjusted or adjusted is indicated in the “adjust” column in Table 37, or by “unadj” and “adj” column labels in Tables 38). With respect to Tables 22-32 and 37-38, the columns labeled “Genotype” (in Tables 22-28 and 37), “Geno_Placebo” (in Tables 29-30 and 38), and “Geno_Resp” (in Tables 31-32 and 38) indicate the genotype which the given stroke risk or SSR results correspond to. […] In Tables 29-32 and 38, the columns labeled “LOWER_PLACEBO” and “UPPER_PLACEBO” (Tables 29-30 and 38), and “LOWER_RESP” and “UPPER_RESP” (Tables 31-32 and 38), refer to the lower and upper 95% confidence intervals for the hazard ratios. See Example Six below for further information relating to Tables 22-32 and 37-38. […] As used herein, the term “benefit” (with respect to a preventive or therapeutic drug treatment) is defined as achieving a reduced risk for a disease that the drug is intended to treat or prevent (e.g., stroke) by administrating the drug treatment, compared with the risk for the disease in the absence of receiving the drug treatment (or receiving a placebo in lieu of the drug treatment) for the same genotype. The term “benefit” may be used herein interchangeably with terms such as “respond positively” or “positively respond”. For stroke risk and statin response associations based on samples from the CARE and PROSPER trials described herein, stroke risk is assessed by comparing the risk of stroke for a given genotype with the risk of stroke for a reference genotype either in the placebo arm of the trial or in the whole study population of the trial, and statin response is assessed by comparing the risk of stroke in the pravastatin arm of the trial with the risk of stroke in the placebo arm of the trial for the same genotype. […] Example Five above describes the analysis of these 61 SNPs plus 17 additional SNPs in the German West Study. […] In PROSPER, SNPs were analyzed for association with stroke risk or SSR, in the whole study cohort (strata: “ALL”), or in the subgroup with a history of CVD (strata: “hist”) or without a CVD history (strata: “no hist”). […] Also in the CARE and PROSPER trials, the chromosome 9p21 SNP […] (hCV26505812) was analyzed further for association with SSR, including unadjusted and adjusted analysis. Adjusted analysis in CARE (Table 37) was adjusted for age, gender, smoking status, hypertension, diabetes, body mass index (BMI), and LDL and HDL levels, and adjusted analysis in PROSPER (Table 38) was adjusted for country, gender, age, LDL, HDL, smoking status (current vs. past or never), history of hypertension, and diabetes. Table 37 provides results in CARE, and Table 38 provides results in PROSPER (whether each analysis is unadjusted or adjusted is indicated in the “adjust” column in Table 37, or by “unadj” and “adj” column labels in Tables 38). All the p-values (including Pint values) provided in Tables 37-38 are two-sided p-values.
# [1] = hCV1348610 rs3739636 C9orf46, GENO_RESP AA + AG, MODE DOM, STRATA hist
# [2] = hCV1348610 rs3739636 C9orf46, GENO_RESP AA, MODE GEN, STRATA hist
# [3] = hCV1348610 rs3739636 C9orf46, GENO_RESP AG, MODE GEN, STRATA hist
# [4] = hCV1348610 rs3739636 C9orf46, GENO_RESP GG, MODE GEN, STRATA hist
# [5] = hCV2091644 rs1010 VAMP8, GENO_RESP CC, MODE GEN, STRATA no hist
# [6] = hCV2091644 rs1010 VAMP8, GENO_RESP CT, MODE GEN, STRATA no hist
# [7] = hCV2091644 rs1010 VAMP8, GENO_RESP TT, MODE GEN, STRATA no hist
compound,measurement,setting,value
CC[C@H](C)C(=O)O[C@H]1C[C@H](O)C=C2C=C[C@H](C)[C@H](CC[C@@H](O)C[C@@H](O)CC(=O)O)[C@H]21 [pravastatin],"HR_RESP_unadj (hazard ratio, pravastatin-treated versus placebo-treated)","PROSPER, rs10757274 genotype AA + AG, mode REC, strata ALL, unadjusted",0.919
same,"HR_RESP_unadj (hazard ratio, pravastatin-treated versus placebo-treated)","PROSPER, rs10757274 genotype AA + AG, mode REC, strata hist, unadjusted",0.885
same,"HR_RESP_unadj (hazard ratio, pravastatin-treated versus placebo-treated)","PROSPER, rs10757274 genotype AA + AG, mode REC, strata no hist, unadjusted",0.927
same,"HR_RESP_unadj (hazard ratio, pravastatin-treated versus placebo-treated)","PROSPER, rs10757274 genotype AA, mode GEN, strata ALL, unadjusted",1.330
same,"HR_RESP_unadj (hazard ratio, pravastatin-treated versus placebo-treated)","PROSPER, rs10757274 genotype AA, mode GEN, strata hist, unadjusted",1.093
same,"HR_RESP_unadj (hazard ratio, pravastatin-treated versus placebo-treated)","PROSPER, rs10757274 genotype AA, mode GEN, strata no hist, unadjusted",1.570
same,"HR_RESP_unadj (hazard ratio, pravastatin-treated versus placebo-treated)","PROSPER, rs10757274 genotype AG, mode GEN, strata ALL, unadjusted",0.777
same,"HR_RESP_unadj (hazard ratio, pravastatin-treated versus placebo-treated)","PROSPER, rs10757274 genotype AG, mode GEN, strata hist, unadjusted",0.816
same,"HR_RESP_unadj (hazard ratio, pravastatin-treated versus placebo-treated)","PROSPER, rs10757274 genotype AG, mode GEN, strata no hist, unadjusted",0.698
same,"HR_RESP_unadj (hazard ratio, pravastatin-treated versus placebo-treated)","PROSPER, rs10757274 genotype GG + AG, mode DOM, strata ALL, unadjusted",0.864
same,"HR_RESP_unadj (hazard ratio, pravastatin-treated versus placebo-treated)","PROSPER, rs10757274 genotype GG + AG, mode DOM, strata hist, unadjusted",0.892
same,"HR_RESP_unadj (hazard ratio, pravastatin-treated versus placebo-treated)","PROSPER, rs10757274 genotype GG + AG, mode DOM, strata no hist, unadjusted",0.813
same,"HR_RESP_unadj (hazard ratio, pravastatin-treated versus placebo-treated)","PROSPER, rs10757274 genotype GG, mode GEN, strata ALL, unadjusted",1.082
same,"HR_RESP_unadj (hazard ratio, pravastatin-treated versus placebo-treated)","PROSPER, rs10757274 genotype GG, mode GEN, strata hist, unadjusted",1.098
same,"HR_RESP_unadj (hazard ratio, pravastatin-treated versus placebo-treated)","PROSPER, rs10757274 genotype GG, mode GEN, strata no hist, unadjusted",1.068
same,"HR (hazard ratio) for stroke events, pravastatin-treated versus placebo-treated","PROSPER, heterozygous carriers of SNP rs10757274 (chromosome 9p21), unadjusted",0.777
same,EVENTS_RESP (number of stroke events),"PROSPER, genotype AA + AG, mode REC, strata ALL",150
same,EVENTS_RESP (number of stroke events),"PROSPER, genotype AA + AG, mode REC, strata hist",87
same,EVENTS_RESP (number of stroke events),"PROSPER, genotype AA + AG, mode REC, strata no hist",63
same,EVENTS_RESP (number of stroke events),"PROSPER, genotype AA, mode GEN, strata ALL",56
same,EVENTS_RESP (number of stroke events),"PROSPER, genotype AA, mode GEN, strata hist",28
same,EVENTS_RESP (number of stroke events),"PROSPER, genotype AA, mode GEN, strata no hist",28
same,EVENTS_RESP (number of stroke events),"PROSPER, genotype AG, mode GEN, strata ALL",94
same,EVENTS_RESP (number of stroke events),"PROSPER, genotype AG, mode GEN, strata hist",59
same,EVENTS_RESP (number of stroke events),"PROSPER, genotype AG, mode GEN, strata no hist",35
same,EVENTS_RESP (number of stroke events),"PROSPER, genotype GG + AG, mode DOM, strata ALL",145
same,EVENTS_RESP (number of stroke events),"PROSPER, genotype GG + AG, mode DOM, strata hist",86
same,EVENTS_RESP (number of stroke events),"PROSPER, genotype GG + AG, mode DOM, strata no hist",59
same,EVENTS_RESP (number of stroke events),"PROSPER, genotype GG, mode GEN, strata ALL",51
same,EVENTS_RESP (number of stroke events),"PROSPER, genotype GG, mode GEN, strata hist",27
same,EVENTS_RESP (number of stroke events),"PROSPER, genotype GG, mode GEN, strata no hist",24
same,EVENTS_RESP,[1],71
same,"HR_RESP (hazard ratio, pravastatin-treated versus placebo-treated)",[1],0.8064
same,EVENTS_RESP,[2],24
same,"HR_RESP (hazard ratio, pravastatin-treated versus placebo-treated)",[2],0.9861
same,EVENTS_RESP,[3],47
same,"HR_RESP (hazard ratio, pravastatin-treated versus placebo-treated)",[3],0.7406
same,EVENTS_RESP,[4],43
same,"HR_RESP (hazard ratio, pravastatin-treated versus placebo-treated)",[4],1.277
same,EVENTS_RESP,"hCV2091644 rs1010 VAMP8, GENO_RESP CC + CT, MODE DOM, STRATA no hist",50
same,EVENTS_RESP,[5],13
same,"HR_RESP (hazard ratio, pravastatin-treated versus placebo-treated)",[5],0.6359
same,EVENTS_RESP,[6],37
same,"HR_RESP (hazard ratio, pravastatin-treated versus placebo-treated)",[6],0.8504
same,EVENTS_RESP,[7],36
same,"HR_RESP (hazard ratio, pravastatin-treated versus placebo-treated)",[7],1.358
same,EVENTS_RESP,"hCV2169762 rs1804689 HPS1, GENO_RESP GG + GT, MODE REC, STRATA hist",109
same,EVENTS_RESP,"hCV2169762 rs1804689 HPS1, GENO_RESP GG, MODE GEN, STRATA hist",62
